Reference: the Bradley open melting point set (2014)

Question: For `FC(F)(F)c1ccccc1CBr` [2-(trifluoromethyl)benzyl bromide], which melting point is on record?
Answer: 29 °C

Question: For `Oc1ccccc1C(F)(F)F` [2-(trifluoromethyl)phenol], which melting point is on record?
Answer: 46 °C

Question: For `NCC(O)c1ccccc1` (stereo unspecified) [2-Amino-1-phenylethanol], which melting point is on record?
Answer: 57 °C

Question: With `Nc1nc2ccc([N+](=O)[O-])cc2s1` [2-Amino-6-nitrobenzothiazole] as the molecule, how does the melting point read?
Answer: 248 °C

Question: Which melting point does the source give for `Nc1ccc2c(c1)C(=O)c1ccccc1C2=O` [2-Amino-9,10-anthraquinone] here?
Answer: 295 °C

Question: Which melting point does the source give for `O=C1c2ccccc2C(C2=CCCCC2)N1Cc1ccccc1` (stereo unspecified) [2-Benzyl-3-cyclohexenylisoindolin-1-one] here?
Answer: 110 °C

Question: For `O=[N+]([O-])c1cc(C(F)(F)F)cc([N+](=O)[O-])c1Cl` [2-Chloro-1,3-dinitro-5-(trifluoromethyl)benzene], which melting point is on record?
Answer: 57 °C

Question: For `O=C(CCl)c1ccccc1` [2-Chloro-1-phenylethanone], which melting point is on record?
Answer: 55 °C

Question: For `CCC(C)(C)Cl` [2-Chloro-2-methylbutane], which melting point is on record?
Answer: -73 °C

Question: Which melting point does the source give for `Cc1cc(Cl)nc2ccccc12` [2-Chloro-4-methylquinoline] here?
Answer: 56.9 °C

Question: With `O=C(O)c1ccccc1Cl` [2-Chlorobenzoic acid] as the molecule, how does the melting point read?
Answer: 142 °C

Question: With `CC(Cl)C(=O)O` (stereo unspecified) [2-Chloropropanoic acid] as the molecule, how does the melting point read?
Answer: -13 °C

Question: For `CCCCC(CC)CO` (stereo unspecified) [2-Ethylhexan-1-ol], which melting point is on record?
Answer: -76 °C

Question: Which melting point does the source give for `CCc1ccccc1O` [2-Ethylphenol] here?
Answer: -28 °C

Question: With `NC(=O)CI` [2-Iodoacetamide] as the molecule, how does the melting point read?
Answer: 94 °C

Question: Which melting point does the source give for `CCC(C)I` (stereo unspecified) [2-Iodobutane] here?
Answer: -104 °C

Question: For `CC1CCC(C(C)C)C(O)C1` (stereo unspecified) [2-Isopropyl-5-methylcyclohexanol], which melting point is on record?
Answer: 34.5 °C

Question: For `Cc1ccccc1C(=O)O` [2-Methylbenzoic acid] [listing 1 of 2 here], which melting point is on record?
Answer: 108 °C

Question: With `Cc1ccccc1C(=O)O` [2-Methylbenzoic acid] [listing 2 of 2 here] as the molecule, how does the melting point read?
Answer: 105 °C

Question: Which melting point does the source give for `CC=C(/C)C` [2-Methylbut-2-ene] here?
Answer: -134 °C

Question: Which melting point does the source give for `CC(C)C=O` [2-Methylpropanal] here?
Answer: -65 °C

Question: With `CC(C)C#N` [2-Methylpropanenitrile] as the molecule, how does the melting point read?
Answer: -72 °C

Question: For `CC(CC(=O)O)C(=O)O` (stereo unspecified) [2-Methylsuccinic acid], which melting point is on record?
Answer: 111 °C

Question: For `CC(C)[N+](=O)[O-]` [2-Nitropropane], which melting point is on record?
Answer: -93 °C

Question: With `COc1ccc(C=CC(=O)c2ccc(O)cc2)cc1` [2-Propen-1-one, 1-(4-hydroxyphenyl)-3-(4-methoxyphenyl)-] as the molecule, how does the melting point read?
Answer: 188 °C

Question: For `O=C(C=Cc1ccc([N+](=O)[O-])cc1)c1ccccc1` [2-Propen-1-one, 3- (4-nitrophenyl)-1-phenyl-], which melting point is on record?
Answer: 161 °C

Question: For `O=[N+]([O-])c1ccccc1C=Cc1ccc2ccccc2n1` [2-[2-(2-Nitro-phenyl)-vinyl]-quinoline], which melting point is on record?
Answer: 102 °C

Question: Which melting point does the source give for `O=[N+]([O-])c1ccccc1C#Cc1ccccn1` [2-[(2-nitrophenyl)ethynyl]pyridine] here?
Answer: 55 °C

Question: With `O=[N+]([O-])c1ccccc1/C=C(/Cl)c1ccccn1` [2-[(E)-1-chloro-2-(2-nitrophenyl)ethenyl]pyridine] as the molecule, how does the melting point read?
Answer: 61 °C

Question: Which melting point does the source give for `CC(=O)Nc1ccc(N)cn1` [2-acetamido-5-aminopyridine] here?
Answer: 149 °C

Question: With `CC(=O)Nc1ccccc1O` [2-acetamidophenol] as the molecule, how does the melting point read?
Answer: 207 °C

Question: With `CC(=O)c1ccccc1C(=O)O` [2-acetylbenzoic acid] as the molecule, how does the melting point read?
Answer: 117 °C

Question: For `CC(=O)c1ccccc1-c1ccccc1` [2-acetylbiphenyl], which melting point is on record?
Answer: 56 °C

Question: Which melting point does the source give for `NC1=NCCS1` [2-amino-2-thiazoline] here?
Answer: 80 °C

Question: With `Nc1c(Br)cc(Br)cc1C(=O)O` [2-amino-3,5-dibromobenzoic acid] as the molecule, how does the melting point read?
Answer: 233 °C

Question: With `Nc1ncccc1OCc1ccccc1` [2-amino-3-benzyloxypyridine] as the molecule, how does the melting point read?
Answer: 93 °C

Question: With `Nc1ncc(C(F)(F)F)cc1Br` [2-amino-3-bromo-5-(trifluoromethyl)pyridine] as the molecule, how does the melting point read?
Answer: 100 °C

Question: Which melting point does the source give for `N#Cc1c(N)sc2c1CCCC2` [2-amino-4,5,6,7-tetrahydrobenzo[b]thiophene-3-carbonitrile] here?
Answer: 143 °C

Question: Which melting point does the source give for `Cc1cc(C)nc(N)n1` [2-amino-4,6-dimethylpyrimidine] here?
Answer: 153 °C

Question: For `COc1nc(N)nc(SC)n1` [2-amino-4-methoxy-6-(methylthio)-1,3,5-triazine], which melting point is on record?
Answer: 201 °C

Question: Which melting point does the source give for `CC(C)(C)c1ccc(O)c(N)c1` [2-amino-4-tert-butylphenol] here?
Answer: 163 °C

Question: For `Nc1ncc(Br)cc1[N+](=O)[O-]` [2-amino-5-bromo-3-nitropyridine], which melting point is on record?
Answer: 208 °C

Question: Which melting point does the source give for `Nc1ccc(Cl)cc1C(=O)c1ccccc1` [2-amino-5-chlorobenzophenone] here?
Answer: 98 °C

Question: With `Nc1ccc([N+](=O)[O-])cc1C(=O)c1ccccc1` [2-amino-5-nitrobenzophenone] as the molecule, how does the melting point read?
Answer: 167 °C

Question: For `Nc1cccc(Cl)c1C(=O)O` [2-amino-6-chlorobenzoic acid], which melting point is on record?
Answer: 151 °C

Question: For `Nc1cccc(F)c1C(=O)O` [2-amino-6-fluorobenzoic acid], which melting point is on record?
Answer: 166 °C

Question: For `Cc1cccc(N)n1` [2-amino-6-methylpyridine], which melting point is on record?
Answer: 43 °C

Question: For `Nc1ccc2cc3ccccc3cc2c1` [2-aminoanthracene], which melting point is on record?
Answer: 237 °C

Question: With `NC(=O)c1ccccc1N` [2-aminobenzamide] as the molecule, how does the melting point read?
Answer: 112 °C

Question: For `Nc1ccccc1B(O)O` [2-aminobenzeneboronic acid], which melting point is on record?
Answer: 189 °C

Question: With `N#Cc1ccccc1N` [2-aminobenzonitrile] as the molecule, how does the melting point read?
Answer: 48 °C

Question: With `Nc1ccccc1-c1ccccc1` [2-aminobiphenyl] as the molecule, how does the melting point read?
Answer: 50 °C

Question: Which melting point does the source give for `NCCOB(c1ccccc1)c1ccccc1` [2-aminoethyl diphenylborinate] here?
Answer: 189 °C

Question: Which melting point does the source give for `CC(C)N` [2-aminopropane] here?
Answer: -95 °C

Question: Which melting point does the source give for `Nc1ccccn1` [2-aminopyridine] here?
Answer: 58 °C

Question: With `Nc1ccccc1S` [2-aminothiophenol] as the molecule, how does the melting point read?
Answer: 19 °C

Question: For `N#CCc1nc2ccccc2s1` [2-benzothiazoleacetonitrile], which melting point is on record?
Answer: 101 °C

Question: With `O=c1[nH]c2ccccc2o1` [2-benzoxazolinone] as the molecule, how does the melting point read?
Answer: 140 °C

Question: Which melting point does the source give for `O=C(c1ccccc1)c1ccccn1` [2-benzoylpyridine] here?
Answer: 43 °C

Question: For `OB(O)c1cc(F)ccc1OCc1ccccc1` [2-benzyloxy-5-fluorobenzeneboronic acid], which melting point is on record?
Answer: 119 °C

Question: With `OB(O)c1ccccc1OCc1ccccc1` [2-benzyloxybenzeneboronic acid] as the molecule, how does the melting point read?
Answer: 98 °C

Question: For `O=C(CBr)c1c(F)c(F)c(F)c(F)c1F` [2-bromo-2',3',4',5',6'-pentafluoroacetophenone], which melting point is on record?
Answer: 31 °C

Question: For `COc1cc(Br)c(/C=C/C(=O)O)cc1OC` [2-bromo-4,5-dimethoxycinnamic acid], which melting point is on record?
Answer: 255 °C

Question: Which melting point does the source give for `Nc1ccc(C(F)(F)F)cc1Br` [2-bromo-4-(trifluoromethyl)aniline] here?
Answer: 30 °C

Question: With `Cc1cc(C)c([N+](=O)[O-])c(C)c1Br` [2-bromo-4-nitro-1,3,5-trimethylbenzene] as the molecule, how does the melting point read?
Answer: 60 °C

Question: Which melting point does the source give for `CCOc1ccc([N+](=O)[O-])cc1Br` [2-bromo-4-nitrophenetole] here?
Answer: 55 °C

Question: For `Fc1ccc(Br)nc1` [2-bromo-5-fluoropyridine], which melting point is on record?
Answer: 29 °C

Question: Which melting point does the source give for `O=C(O)c1cc([N+](=O)[O-])ccc1Br` [2-bromo-5-nitrobenzoic acid] here?
Answer: 180 °C

Question: With `FC(F)(F)c1cccc(Br)n1` [2-bromo-6-(trifluoromethyl)pyridine] as the molecule, how does the melting point read?
Answer: 50 °C

Question: For `Br/C(C)=CC` [2-bromo-cis-2-butene], which melting point is on record?
Answer: -111 °C

Question: With `Cc1ccc(C)c(Br)c1` [2-bromo-p-xylene] as the molecule, how does the melting point read?
Answer: 10 °C
